Data as given in US20230391868A1, “COMPOSITIONS FOR AND METHODS OF TREATING CANCER” (The George Washington University, priority 2022, published 2023).

Test system: A31A7 macrophages and BMDMs
Assay: Macrophage cell surface marker expression by flow cytometry
Format: cell-based, mouse
Procedure: Bone marrow-derived macrophages were isolated from the femurs and tibias of wild-type C57/Bl6, HDAC6 knockout (C57BL/6J-Hdac6em2Lutzy/J, 029318, Jackson Laboratory), or UBC-GFP (C57BL/6-Tg(UBC-GFP)30Scha/J, 004353, Jackson Laboratory). Isolated bone marrow cells were cultured in RPMI 1640 complete medium with 10% FBS, 1% NEAA, and 1% penicillin-streptomycin in 5% CO2 at 37° C. Medium was supplemented with murine recombinant M-CSF (20 ng/mL, 576404, Biolegend) to differentiate monocytes into macrophages. Three days after bone marrow isolation, undifferentiated and floating cells were washed with PBS and replaced with fresh RPMI media. A3.1A7 cells and BMDMs were pretreated with 5 μM of HDAC6 inhibitor NextA or vehicle prior to adding polarizing cytokines.
Macrophages were polarized to M1-like phenotype using 50 ng/mL of interferon gamma (IFNγ, 575306, Biolegend) and 100 ng/mL of bacterial lipopolysaccharide (LPS, L2880, Sigma Aldrich, St. Louis, MO) for 24 hours. To polarize macrophages towards the M2-like phenotype, macrophages were stimulated with 20 ng/mL of IL-4 (214-14, PeproTech) and 20 ng/mL of IL-13 (575904, Biolegend). THP1 monocytes were treated with 5 ng/mL of phorbol 12-myristate 13-acetate (PMA) to induce differentiation into macrophages. Once converted to macrophages, media was replaced to remove PMA prior to treatment and/or polarization. […]

Compound: CCCCN(Cc1ccc(C(=O)NO)cc1)C(=O)Nc1ccccc1 [NextA, Nexturastat A]
- cell surface expression of CD80 and H2 (A31A7 and BMDMs polarized to M1-like phenotypes, 5 μM (FIG. 1B)): upregulation
- CD206 surface expression (A31A7 cells and BMDMs, M2, 5 μM (FIG. 1D)): significantly downregulated
